Reference: ChEMBL document CHEMBL1201862, “PubChem BioAssay data set” (2004)
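Interpolation was linear, between the two tested concentrations surrounding the appropriate level; five concentrations were tested over 48 hours in 96-well plates. Here, GI50 denotes the concentration required for 50% inhibition of growth.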 Calls of active or inactive are those of the source. Rule as the data show it: active = GI50 up to about 1.1 µM and inactive = higher.

Assays:
Assay in all cases: inhibition of tumour cell growth, NCI panel, 48 h
786-0 = tested on: 786-0
A498 = tested on: A498
A549 = tested on: A549
ACHN = tested on: ACHN
BT-549 = tested on: BT-549
CAKI-1 = tested on: CAKI-1
CCRF-CEM = tested on: CCRF-CEM
COLO 205 = tested on: COLO 205
DU-145 = tested on: DU-145
EKVX = tested on: EKVX
HCC 2998 = tested on: HCC 2998
HCT-116 = tested on: HCT-116
HCT-15 = tested on: HCT-15
HL-60 = tested on: HL-60
HOP-62 = tested on: HOP-62
HOP-92 = tested on: HOP-92
HT-29 = tested on: HT-29
Hs-578T = tested on: Hs-578T
IGROV-1 = tested on: IGROV-1
K562 = tested on: K562
KM12 = tested on: KM12
LOX IMVI = tested on: LOX IMVI
M14 = tested on: M14
MCF7 = tested on: MCF7
MDA-MB-231 = tested on: MDA-MB-231
MDA-MB-435 = tested on: MDA-MB-435
MDA-N = tested on: MDA-N
MOLT-4 = tested on: MOLT-4
Malme-3M = tested on: Malme-3M
NCI-H226 = tested on: NCI-H226
NCI-H23 = tested on: NCI-H23
NCI-H460 = tested on: NCI-H460
NCI-H522 = tested on: NCI-H522
NCI/ADR-RES = tested on: NCI/ADR-RES
OVCAR-3 = tested on: OVCAR-3
OVCAR-4 = tested on: OVCAR-4
OVCAR-5 = tested on: OVCAR-5
OVCAR-8 = tested on: OVCAR-8
PC-3 = tested on: PC-3
RPMI-8226 = tested on: RPMI-8226
RXF 393 = tested on: RXF 393
SF-268 = tested on: SF-268
SF-295 = tested on: SF-295
SF-539 = tested on: SF-539
SK-MEL-28 = tested on: SK-MEL-28
SK-MEL-2 = tested on: SK-MEL-2
SK-MEL-5 = tested on: SK-MEL-5
SK-OV-3 = tested on: SK-OV-3
SN12C = tested on: SN12C
SNB-19 = tested on: SNB-19
SNB-75 = tested on: SNB-75
SR = tested on: SR
SW-620 = tested on: SW-620
T47D = tested on: T47D
TK-10 = tested on: TK-10
U-251 = tested on: U-251
UACC-257 = tested on: UACC-257
UACC-62 = tested on: UACC-62
UO-31 = tested on: UO-31

CCc1nc(N)nc(N)c1-c1ccc2c(c1)nnn2CCc1ccccc1
GI50 (786-0): 5.89 µM (inactive) | GI50 (A498): 24.1 µM (inactive) | GI50 (A549): 3.09 µM (inactive) | GI50 (ACHN): 7.23 µM (inactive) | GI50 (BT-549): 22.9 µM (inactive) | GI50 (CAKI-1): 11.2 µM (inactive) | GI50 (CCRF-CEM): 7.23 µM (inactive) | GI50 (COLO 205): 14.9 µM (inactive) | GI50 (DU-145): 23.9 µM (inactive) | GI50 (EKVX): 21.8 µM (inactive) | GI50 (HCC 2998): 13.9 µM (inactive) | GI50 (HCT-116): 2.36 µM (inactive) | GI50 (HCT-15): 3.09 µM | GI50 (HL-60): 3.02 µM (inactive) | GI50 (HOP-62): 22.2 µM (inactive) | GI50 (HOP-92): 38.4 µM (inactive) | GI50 (HT-29): 3.53 µM (inactive) | GI50 (Hs-578T): 30.7 µM (inactive) | GI50 (IGROV-1): 4.72 µM (inactive) | GI50 (K562): 1.55 µM (inactive) | GI50 (KM12): 14.1 µM (inactive) | GI50 (LOX IMVI): 5.16 µM (inactive) | GI50 (M14): 4.66 µM (inactive) | GI50 (MCF7): 21.1 µM (inactive) | GI50 (MDA-MB-231): 26.1 µM (inactive) | GI50 (MDA-MB-435): 6.52 µM (inactive) | GI50 (MDA-N): 6.1 µM (inactive) | GI50 (MOLT-4): 8.91 µM (inactive) | GI50 (Malme-3M): 19.5 µM (inactive) | GI50 (NCI-H226): 38.6 µM (inactive) | GI50 (NCI-H23): 12.6 µM (inactive) | GI50 (NCI-H460): 2.32 µM (inactive) | GI50 (NCI-H522): 5.98 µM (inactive) | GI50 (NCI/ADR-RES): 13.7 µM (inactive) | GI50 (OVCAR-3): 16.6 µM (inactive) | GI50 (OVCAR-4): 20.8 µM (inactive) | GI50 (OVCAR-5): > 60.5 µM (inactive) | GI50 (OVCAR-8): 4.95 µM (inactive) | GI50 (PC-3): 4.63 µM (inactive) | GI50 (RPMI-8226): 13.6 µM (inactive) | GI50 (RXF 393): 26.4 µM (inactive) | GI50 (SF-268): 10.3 µM (inactive) | GI50 (SF-295): 8.3 µM (inactive) | GI50 (SF-539): 21.3 µM (inactive) | GI50 (SK-MEL-28): 31.4 µM (inactive) | GI50 (SK-MEL-2): 28.2 µM (inactive) | GI50 (SK-MEL-5): 8.53 µM (inactive) | GI50 (SK-OV-3): 45.4 µM (inactive) | GI50 (SN12C): 22.5 µM (inactive) | GI50 (SNB-19): 23.9 µM (inactive) | GI50 (SNB-75): 15.8 µM (inactive) | GI50 (SR): 5.18 µM (inactive) | GI50 (SW-620): 4.92 µM (inactive) | GI50 (T47D): 23.4 µM (inactive) | GI50 (TK-10): 35.4 µM (inactive) | GI50 (U-251): 7.69 µM (inactive) | GI50 (UACC-257): 22.2 µM (inactive) | GI50 (UACC-62): 7.01 µM (inactive) | GI50 (UO-31): 16.3 µM (inactive)

CCN(/C=C1/C(=O)C(c2ccccc2)N(c2ccccc2)C1=O)CC (configuration not stated)
GI50 (786-0): > 10 µM (inactive) | GI50 (A498): > 10 µM (inactive) | GI50 (A549): > 10 µM (inactive) | GI50 (ACHN): > 10 µM (inactive) | GI50 (BT-549): > 10 µM (inactive) | GI50 (CAKI-1): > 10 µM (inactive) | GI50 (CCRF-CEM): > 10 µM (inactive) | GI50 (COLO 205): > 10 µM (inactive) | GI50 (DU-145): > 10 µM (inactive) | GI50 (EKVX): > 10 µM (inactive) | GI50 (HCC 2998): > 10 µM (inactive) | GI50 (HCT-116): > 10 µM (inactive) | GI50 (HCT-15): > 10 µM | GI50 (HL-60): > 10 µM (inactive) | GI50 (HOP-62): > 10 µM (inactive) | GI50 (HT-29): > 10 µM (inactive) | GI50 (Hs-578T): > 10 µM (inactive) | GI50 (IGROV-1): > 10 µM (inactive) | GI50 (K562): > 10 µM (inactive) | GI50 (KM12): > 10 µM (inactive) | GI50 (LOX IMVI): > 10 µM (inactive) | GI50 (M14): > 10 µM (inactive) | GI50 (MCF7): > 10 µM (inactive) | GI50 (MDA-MB-231): > 10 µM (inactive) | GI50 (MDA-MB-435): > 10 µM (inactive) | GI50 (MDA-N): > 10 µM (inactive) | GI50 (MOLT-4): > 10 µM (inactive) | GI50 (Malme-3M): > 10 µM (inactive) | GI50 (NCI-H226): > 10 µM (inactive) | GI50 (NCI-H23): > 10 µM (inactive) | GI50 (NCI-H460): > 10 µM (inactive) | GI50 (NCI-H522): > 10 µM (inactive) | GI50 (NCI/ADR-RES): > 10 µM (inactive) | GI50 (OVCAR-3): > 10 µM (inactive) | GI50 (OVCAR-4): > 10 µM (inactive) | GI50 (OVCAR-5): > 10 µM (inactive) | GI50 (OVCAR-8): > 10 µM (inactive) | GI50 (PC-3): > 10 µM (inactive) | GI50 (RPMI-8226): > 10 µM (inactive) | GI50 (RXF 393): > 10 µM (inactive) | GI50 (SF-268): > 10 µM (inactive) | GI50 (SF-295): > 10 µM (inactive) | GI50 (SF-539): > 10 µM (inactive) | GI50 (SK-MEL-28): > 10 µM (inactive) | GI50 (SK-MEL-2): > 10 µM (inactive) | GI50 (SK-MEL-5): > 10 µM (inactive) | GI50 (SK-OV-3): > 10 µM (inactive) | GI50 (SN12C): > 10 µM (inactive) | GI50 (SNB-19): > 10 µM (inactive) | GI50 (SNB-75): 6.44 µM (inactive) | GI50 (SR): > 10 µM (inactive) | GI50 (SW-620): > 10 µM (inactive) | GI50 (T47D): > 10 µM (inactive) | GI50 (TK-10): > 10 µM (inactive) | GI50 (U-251): > 10 µM (inactive) | GI50 (UACC-257): > 10 µM (inactive) | GI50 (UACC-62): > 10 µM (inactive) | GI50 (UO-31): > 10 µM (inactive)
